US20170037028A1 (BAYER PHARMA AKTIENGESELLSCHAFT, priority 2013, published 2017)

Biological target: T1, GLUT1 (Homo sapiens, UniProt P11166)
T1 sequence (P11166 1-492): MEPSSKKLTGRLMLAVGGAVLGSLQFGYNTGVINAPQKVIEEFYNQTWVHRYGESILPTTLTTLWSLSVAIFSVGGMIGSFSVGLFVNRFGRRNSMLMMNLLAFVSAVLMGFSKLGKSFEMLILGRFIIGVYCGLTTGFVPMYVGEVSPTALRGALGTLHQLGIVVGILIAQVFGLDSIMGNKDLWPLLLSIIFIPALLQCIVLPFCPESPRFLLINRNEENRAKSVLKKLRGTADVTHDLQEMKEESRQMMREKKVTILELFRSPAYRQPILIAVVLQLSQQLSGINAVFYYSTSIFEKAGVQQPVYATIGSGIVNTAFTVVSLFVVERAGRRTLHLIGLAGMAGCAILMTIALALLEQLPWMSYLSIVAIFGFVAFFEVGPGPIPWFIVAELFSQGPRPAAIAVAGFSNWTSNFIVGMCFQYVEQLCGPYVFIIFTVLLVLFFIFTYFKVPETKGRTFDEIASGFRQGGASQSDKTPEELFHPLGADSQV
Assay: Indirect measurement of GLUT1 activity by quantification of intracellular ATP levels (glucose induced ATP increase)
Assay type: cell-based
Parameters: endogenous in cells; host or cells: DLD1 or CHO-K1
Conditions: read-out: IC50 regarding glucose induced ATP increase (GLUT1 inhibition)
Summary of the method: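 DLD1 or CHO-K1 cells were starved overnight in glucose-free medium with 1% FCS, then combined with an oxidative phosphorylation inhibitor. GLUT1 activity was read as glucose-induced ATP increase, GLUT2 as fructose-induced. Intracellular ATP was quantified by CellTiter-Glo luminescence.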

| Compound | IC50 [nM] |
| --- | --- |
| Cc1c(NC(=O)c2cc(C(N)=O)nc3cc(Cl)ccc23)c(C(F)(F)F)nn1Cc1ccc(C#N)cc1 [Example 246, 7-chloro-N^4-[1-(4-cyanobenzyl)-5-methyl-3-(trifluoromethyl)-1H-pyrazol-4-yl]quinoline-2,4-dicarboxamide] | 2.6 |
| Cc1c(NC(=O)c2cc(C(N)=O)nc3c(F)cccc23)c(C(F)(F)F)nn1Cc1ccc(C#N)cc1 [Example 247, N^4-[1-(4-cyanobenzyl)-5-methyl-3-(trifluoromethyl)-1H-pyrazol-4-yl]-8-fluoroquinoline-2,4-dicarboxamide] | 4.9 |
| Cc1c(NC(=O)c2cc(C(N)=O)nc3ccc(Cl)cc23)c(C(F)(F)F)nn1Cc1ccc(C#N)cc1 [Example 248, 6-chloro-N^4-[1-(4-cyanobenzyl)-5-methyl-3-(trifluoromethyl)-1H-pyrazol-4-yl]quinoline-2,4-dicarboxamide] | 0.6 |
| Cc1c(NC(=O)c2cc(C(N)=O)nc3cccc(F)c23)c(C(F)(F)F)nn1Cc1ccc(C#N)cc1 [Example 249, N^4-[1-(4-cyanobenzyl)-5-methyl-3-(trifluoromethyl)-1H-pyrazol-4-yl]-5-fluoroquinoline-2,4-dicarboxamide] | 1 |
| Cc1c(NC(=O)c2cc(C(N)=O)nc3ccc(Br)cc23)c(C(F)(F)F)nn1Cc1ccc(C#N)cc1 [Example 250] | 3.6 |
| Cc1nn(Cc2ccc(C#N)cc2)c(C)c1NC(=O)c1cc(C(N)=O)nc2cccc(C)c12 [Example 257, N^4-[1-(4-cyanobenzyl)-3,5-dimethyl-1H-pyrazol-4-yl]-5-methylquinoline-2,4-dicarboxamide] | 2.4 |
| COc1ccc2nc(C(N)=O)cc(C(=O)Nc3c(C)nn(Cc4ccc(C#N)cc4)c3C)c2c1 [Example 258, N^4-[1-(4-cyanobenzyl)-3,5-dimethyl-1H-pyrazol-4-yl]-6-methoxyquinoline-2,4-dicarboxamide] | 1 |
| Cc1nn(Cc2ccc(C#N)cc2)c(C)c1NC(=O)c1cc(C(N)=O)nc2ccccc12 [Example 259, N^4-[1-(4-cyanobenzyl)-3,5-dimethyl-1H-pyrazol-4-yl]quinoline-2,4-dicarboxamide] | 9.7 |
| Cc1nn(Cc2ccc(C#N)cc2)c(C)c1NC(=O)c1cc(C(N)=O)nc2cc(Cl)ccc12 [Example 260, 7-chloro-N^4-[1-(4-cyanobenzyl)-3,5-dimethyl-1H-pyrazol-4-yl]quinoline-2,4-dicarboxamide] | 4.7 |
| Cc1nn(Cc2ccc(C#N)cc2)c(C)c1NC(=O)c1cc(C(N)=O)nc2ccc(Cl)cc12 [Example 261, 6-chloro-N^4-[1-(4-cyanobenzyl)-3,5-dimethyl-1H-pyrazol-4-yl]quinoline-2,4-dicarboxamide] | 0.5 |
| Cc1nn(Cc2ccc(C#N)cc2)c(C)c1NC(=O)c1cc(C(N)=O)nc2cccc(F)c12 [Example 262, N^4-[1-(4-cyanobenzyl)-3,5-dimethyl-1H-pyrazol-4-yl]-5-fluoroquinoline-2,4-dicarboxamide] | 1.2 |
| Cc1ccc2nc(C(N)=O)cc(C(=O)Nc3c(C)nn(Cc4ccc(C#N)cc4)c3C)c2c1 [Example 264, N^4-[1-(4-cyanobenzyl)-3,5-dimethyl-1H-pyrazol-4-yl]-6-methylquinoline-2,4-dicarboxamide] | 2.6 |
| COc1cc(C(=O)Nc2c(C)nn(Cc3ccc(C#N)cc3)c2C)c2cc(F)ccc2n1 [Example 265, N-[1-(4-cyanobenzyl)-3,5-dimethyl-1H-pyrazol-4-yl]-6-fluoro-2-methoxyquinoline-4-carboxamide] | 6.6 |
| Cc1nn(Cc2ccccc2C#N)c(C)c1NC(=O)c1cc(C(N)=O)nc2cc(F)ccc12 [Example 266, N^4-[1-(2-cyanobenzyl)-3,5-dimethyl-1H-pyrazol-4-yl]-7-fluoroquinoline-2,4-dicarboxamide] | 1 |
| Cc1nn(Cc2ccccc2C#N)c(C)c1NC(=O)c1cc(C(N)=O)nc2ccc(Br)cc12 [Example 268, 6-bromo-N^4-[1-(2-cyanobenzyl)-3,5-dimethyl-1H-pyrazol-4-yl]quinoline-2,4-dicarboxamide] | 0.6 |
| Cc1nn(Cc2ccccc2C#N)c(C)c1NC(=O)c1cc(C(N)=O)nc2c(F)cc(Cl)cc12 [Example 269, 6-chloro-N^4-[1-(2-cyanobenzyl)-3,5-dimethyl-1H-pyrazol-4-yl]-8-fluoroquinoline-2,4-dicarboxamide] | 1.5 |
| Cc1c(NC(=O)c2cc(C(N)=O)nc3cc(F)c(Cl)cc23)c(C(F)(F)F)nn1Cc1ccccc1C#N [Example 270, 6-chloro-N^4-[1-(2-cyanobenzyl)-5-methyl-3-(trifluoromethyl)-1H-pyrazol-4-yl]-7-fluoroquinoline-2,4-dicarboxamide] | 1.8 |
| COc1ccc(Cn2nc(C)c(NC(=O)c3cc(C(N)=O)nc4cc(F)ccc34)c2C)cc1 [Example 275, 7-fluoro-N^4-[1-(4-methoxybenzyl)-3,5-dimethyl-1H-pyrazol-4-yl]quinoline-2,4-dicarboxamide] | 1.1 |
| COc1ccc(Cn2nc(C)c(NC(=O)c3cc(C(N)=O)nc4c(F)cc(Cl)cc34)c2C)cc1 [Example 276, 6-chloro-8-fluoro-N^4-[1-(4-methoxybenzyl)-3,5-dimethyl-1H-pyrazol-4-yl]quinoline-2,4-dicarboxamide] | 1.3 |
| COc1ccc(Cn2nc(C(F)(F)F)c(NC(=O)c3cc(C(N)=O)nc4ccccc34)c2C)cc1 [Example 277, N^4-[1-(4-methoxybenzyl)-5-methyl-3-(trifluoromethyl)-1H-pyrazol-4-yl]quinoline-2,4-dicarboxamide] | 1.8 |
| COc1ccc(Cn2nc(C(F)(F)F)c(NC(=O)c3cc(C(N)=O)nc4cc(F)c(Cl)cc34)c2C)cc1 [Example 278, 6-chloro-7-fluoro-N^4-[1-(4-methoxybenzyl)-5-methyl-3-(trifluoromethyl)-1H-pyrazol-4-yl]quinoline-2,4-dicarboxamide] | 1.4 |
| COc1ccc(Cn2nc(C(F)(F)F)c(NC(=O)c3cc(C(N)=O)nc4cc(F)c(F)cc34)c2C)cc1 [Example 279, 6,7-difluoro-N^4-[1-(4-methoxybenzyl)-5-methyl-3-(trifluoromethyl)-1H-pyrazol-4-yl]quinoline-2,4-dicarboxamide] | 1.4 |

Continued, values first:

| IC50 [nM] | Compound |
| --- | --- |
| 1.2 | Cc1nn(Cc2ccc(C#N)cc2)c(C)c1NC(=O)c1cc(C(N)=O)nc2c(F)cc(Cl)cc12 [Example 252, 6-chloro-N^4-[1-(4-cyanobenzyl)-3,5-dimethyl-1H-pyrazol-4-yl]-8-fluoroquinoline-2,4-dicarboxamide] |
| 0.5 | Cc1nn(Cc2ccc(C#N)cc2)c(C)c1NC(=O)c1cc(C(N)=O)nc2cc(F)cc(F)c12 [Example 253, N^4-[1-(4-cyanobenzyl)-3,5-dimethyl-1H-pyrazol-4-yl]-5,7-difluoroquinoline-2,4-dicarboxamide] |
| 1.2 | COc1cc2c(C(=O)Nc3c(C)nn(Cc4ccc(C#N)cc4)c3C)cc(C(N)=O)nc2cc1F [Example 254, N^4-[1-(4-cyanobenzyl)-3,5-dimethyl-1H-pyrazol-4-yl]-7-fluoro-6-methoxyquinoline-2,4-dicarboxamide] |
| 1.4 | Cc1nn(Cc2ccc(C#N)cc2)c(C)c1NC(=O)c1cc(C(N)=O)nc2c(Cl)cccc12 [Example 255, 8-chloro-N^4-[1-(4-cyanobenzyl)-3,5-dimethyl-1H-pyrazol-4-yl]quinoline-2,4-dicarboxamide] |
| 2.4 | Cc1cc2c(C(=O)Nc3c(C)nn(Cc4ccc(C#N)cc4)c3C)cc(C(N)=O)nc2cc1F [Example 256, N^4-[1-(4-cyanobenzyl)-3,5-dimethyl-1H-pyrazol-4-yl]-7-fluoro-6-methylquinoline-2,4-dicarboxamide] |
| 3.9 | Cc1nn(Cc2ccc(C#N)cc2)c(C)c1NC(=O)c1cc(C(N)=O)nc2c(F)cccc12 [Example 263, N^4-[1-(4-cyanobenzyl)-3,5-dimethyl-1H-pyrazol-4-yl]-8-fluoroquinoline-2,4-dicarboxamide] |
| 2.6 | Cc1nn(Cc2ccccc2C#N)c(C)c1NC(=O)c1cc(C(N)=O)nc2cccc(F)c12 [Example 267, N^4-[1-(2-cyanobenzyl)-3,5-dimethyl-1H-pyrazol-4-yl]-5-fluoroquinoline-2,4-dicarboxamide] |
| 3.6 | Cc1c(NC(=O)c2cc(C(N)=O)nc3ccccc23)c(C(F)(F)F)nn1Cc1ccccc1C#N [Example 271, N^4-[1-(2-cyanobenzyl)-5-methyl-3-(trifluoromethyl)-1H-pyrazol-4-yl]quinoline-2,4-dicarboxamide] |
| 2.5 | Cc1c(NC(=O)c2cc(C(N)=O)nc3cc(F)ccc23)c(C(F)(F)F)nn1Cc1ccccc1C#N [Example 272, N^4-[1-(2-cyanobenzyl)-5-methyl-3-(trifluoromethyl)-1H-pyrazol-4-yl]-7-fluoroquinoline-2,4-dicarboxamide] |
| 5.9 | Cc1c(NC(=O)c2cc(C(N)=O)nc3cccc(F)c23)c(C(F)(F)F)nn1Cc1ccccc1C#N [Example 273, N^4-[1-(2-cyanobenzyl)-5-methyl-3-(trifluoromethyl)-1H-pyrazol-4-yl]-5-fluoroquinoline-2,4-dicarboxamide] |
| 1 | Cc1c(NC(=O)c2cc(C(N)=O)nc3ccc(Br)cc23)c(C(F)(F)F)nn1Cc1ccccc1C#N [Example 274, 6-bromo-N^4-[1-(2-cyanobenzyl)-5-methyl-3-(trifluoromethyl)-1H-pyrazol-4-yl]quinoline-2,4-dicarboxamide] |
